Experimental data as given in article PMC8019157 (Antiviral research, 2021).

Legend:
[1] = tested on: C2C12 skeletal muscle myotubes; experiment: Live-cell Ca^2+ imaging; format: cell-based, Mouse
[2] = target: rabbit skeletal muscle ryanodine receptor Ca^2+ release channel (RyR1) (Oryctolagus cuniculus, UniProt P11716); experiment: [^3H]ryanodine binding/displacement assay with SR membrane vesicles
[3] = target: RyR1 (Oryctolagus cuniculus, UniProt P11716); experiment: Lipid bilayer single channel recordings of purified RyR1; format: biochemical, rabbit
Chain of RyR1 (P11716 whole entry): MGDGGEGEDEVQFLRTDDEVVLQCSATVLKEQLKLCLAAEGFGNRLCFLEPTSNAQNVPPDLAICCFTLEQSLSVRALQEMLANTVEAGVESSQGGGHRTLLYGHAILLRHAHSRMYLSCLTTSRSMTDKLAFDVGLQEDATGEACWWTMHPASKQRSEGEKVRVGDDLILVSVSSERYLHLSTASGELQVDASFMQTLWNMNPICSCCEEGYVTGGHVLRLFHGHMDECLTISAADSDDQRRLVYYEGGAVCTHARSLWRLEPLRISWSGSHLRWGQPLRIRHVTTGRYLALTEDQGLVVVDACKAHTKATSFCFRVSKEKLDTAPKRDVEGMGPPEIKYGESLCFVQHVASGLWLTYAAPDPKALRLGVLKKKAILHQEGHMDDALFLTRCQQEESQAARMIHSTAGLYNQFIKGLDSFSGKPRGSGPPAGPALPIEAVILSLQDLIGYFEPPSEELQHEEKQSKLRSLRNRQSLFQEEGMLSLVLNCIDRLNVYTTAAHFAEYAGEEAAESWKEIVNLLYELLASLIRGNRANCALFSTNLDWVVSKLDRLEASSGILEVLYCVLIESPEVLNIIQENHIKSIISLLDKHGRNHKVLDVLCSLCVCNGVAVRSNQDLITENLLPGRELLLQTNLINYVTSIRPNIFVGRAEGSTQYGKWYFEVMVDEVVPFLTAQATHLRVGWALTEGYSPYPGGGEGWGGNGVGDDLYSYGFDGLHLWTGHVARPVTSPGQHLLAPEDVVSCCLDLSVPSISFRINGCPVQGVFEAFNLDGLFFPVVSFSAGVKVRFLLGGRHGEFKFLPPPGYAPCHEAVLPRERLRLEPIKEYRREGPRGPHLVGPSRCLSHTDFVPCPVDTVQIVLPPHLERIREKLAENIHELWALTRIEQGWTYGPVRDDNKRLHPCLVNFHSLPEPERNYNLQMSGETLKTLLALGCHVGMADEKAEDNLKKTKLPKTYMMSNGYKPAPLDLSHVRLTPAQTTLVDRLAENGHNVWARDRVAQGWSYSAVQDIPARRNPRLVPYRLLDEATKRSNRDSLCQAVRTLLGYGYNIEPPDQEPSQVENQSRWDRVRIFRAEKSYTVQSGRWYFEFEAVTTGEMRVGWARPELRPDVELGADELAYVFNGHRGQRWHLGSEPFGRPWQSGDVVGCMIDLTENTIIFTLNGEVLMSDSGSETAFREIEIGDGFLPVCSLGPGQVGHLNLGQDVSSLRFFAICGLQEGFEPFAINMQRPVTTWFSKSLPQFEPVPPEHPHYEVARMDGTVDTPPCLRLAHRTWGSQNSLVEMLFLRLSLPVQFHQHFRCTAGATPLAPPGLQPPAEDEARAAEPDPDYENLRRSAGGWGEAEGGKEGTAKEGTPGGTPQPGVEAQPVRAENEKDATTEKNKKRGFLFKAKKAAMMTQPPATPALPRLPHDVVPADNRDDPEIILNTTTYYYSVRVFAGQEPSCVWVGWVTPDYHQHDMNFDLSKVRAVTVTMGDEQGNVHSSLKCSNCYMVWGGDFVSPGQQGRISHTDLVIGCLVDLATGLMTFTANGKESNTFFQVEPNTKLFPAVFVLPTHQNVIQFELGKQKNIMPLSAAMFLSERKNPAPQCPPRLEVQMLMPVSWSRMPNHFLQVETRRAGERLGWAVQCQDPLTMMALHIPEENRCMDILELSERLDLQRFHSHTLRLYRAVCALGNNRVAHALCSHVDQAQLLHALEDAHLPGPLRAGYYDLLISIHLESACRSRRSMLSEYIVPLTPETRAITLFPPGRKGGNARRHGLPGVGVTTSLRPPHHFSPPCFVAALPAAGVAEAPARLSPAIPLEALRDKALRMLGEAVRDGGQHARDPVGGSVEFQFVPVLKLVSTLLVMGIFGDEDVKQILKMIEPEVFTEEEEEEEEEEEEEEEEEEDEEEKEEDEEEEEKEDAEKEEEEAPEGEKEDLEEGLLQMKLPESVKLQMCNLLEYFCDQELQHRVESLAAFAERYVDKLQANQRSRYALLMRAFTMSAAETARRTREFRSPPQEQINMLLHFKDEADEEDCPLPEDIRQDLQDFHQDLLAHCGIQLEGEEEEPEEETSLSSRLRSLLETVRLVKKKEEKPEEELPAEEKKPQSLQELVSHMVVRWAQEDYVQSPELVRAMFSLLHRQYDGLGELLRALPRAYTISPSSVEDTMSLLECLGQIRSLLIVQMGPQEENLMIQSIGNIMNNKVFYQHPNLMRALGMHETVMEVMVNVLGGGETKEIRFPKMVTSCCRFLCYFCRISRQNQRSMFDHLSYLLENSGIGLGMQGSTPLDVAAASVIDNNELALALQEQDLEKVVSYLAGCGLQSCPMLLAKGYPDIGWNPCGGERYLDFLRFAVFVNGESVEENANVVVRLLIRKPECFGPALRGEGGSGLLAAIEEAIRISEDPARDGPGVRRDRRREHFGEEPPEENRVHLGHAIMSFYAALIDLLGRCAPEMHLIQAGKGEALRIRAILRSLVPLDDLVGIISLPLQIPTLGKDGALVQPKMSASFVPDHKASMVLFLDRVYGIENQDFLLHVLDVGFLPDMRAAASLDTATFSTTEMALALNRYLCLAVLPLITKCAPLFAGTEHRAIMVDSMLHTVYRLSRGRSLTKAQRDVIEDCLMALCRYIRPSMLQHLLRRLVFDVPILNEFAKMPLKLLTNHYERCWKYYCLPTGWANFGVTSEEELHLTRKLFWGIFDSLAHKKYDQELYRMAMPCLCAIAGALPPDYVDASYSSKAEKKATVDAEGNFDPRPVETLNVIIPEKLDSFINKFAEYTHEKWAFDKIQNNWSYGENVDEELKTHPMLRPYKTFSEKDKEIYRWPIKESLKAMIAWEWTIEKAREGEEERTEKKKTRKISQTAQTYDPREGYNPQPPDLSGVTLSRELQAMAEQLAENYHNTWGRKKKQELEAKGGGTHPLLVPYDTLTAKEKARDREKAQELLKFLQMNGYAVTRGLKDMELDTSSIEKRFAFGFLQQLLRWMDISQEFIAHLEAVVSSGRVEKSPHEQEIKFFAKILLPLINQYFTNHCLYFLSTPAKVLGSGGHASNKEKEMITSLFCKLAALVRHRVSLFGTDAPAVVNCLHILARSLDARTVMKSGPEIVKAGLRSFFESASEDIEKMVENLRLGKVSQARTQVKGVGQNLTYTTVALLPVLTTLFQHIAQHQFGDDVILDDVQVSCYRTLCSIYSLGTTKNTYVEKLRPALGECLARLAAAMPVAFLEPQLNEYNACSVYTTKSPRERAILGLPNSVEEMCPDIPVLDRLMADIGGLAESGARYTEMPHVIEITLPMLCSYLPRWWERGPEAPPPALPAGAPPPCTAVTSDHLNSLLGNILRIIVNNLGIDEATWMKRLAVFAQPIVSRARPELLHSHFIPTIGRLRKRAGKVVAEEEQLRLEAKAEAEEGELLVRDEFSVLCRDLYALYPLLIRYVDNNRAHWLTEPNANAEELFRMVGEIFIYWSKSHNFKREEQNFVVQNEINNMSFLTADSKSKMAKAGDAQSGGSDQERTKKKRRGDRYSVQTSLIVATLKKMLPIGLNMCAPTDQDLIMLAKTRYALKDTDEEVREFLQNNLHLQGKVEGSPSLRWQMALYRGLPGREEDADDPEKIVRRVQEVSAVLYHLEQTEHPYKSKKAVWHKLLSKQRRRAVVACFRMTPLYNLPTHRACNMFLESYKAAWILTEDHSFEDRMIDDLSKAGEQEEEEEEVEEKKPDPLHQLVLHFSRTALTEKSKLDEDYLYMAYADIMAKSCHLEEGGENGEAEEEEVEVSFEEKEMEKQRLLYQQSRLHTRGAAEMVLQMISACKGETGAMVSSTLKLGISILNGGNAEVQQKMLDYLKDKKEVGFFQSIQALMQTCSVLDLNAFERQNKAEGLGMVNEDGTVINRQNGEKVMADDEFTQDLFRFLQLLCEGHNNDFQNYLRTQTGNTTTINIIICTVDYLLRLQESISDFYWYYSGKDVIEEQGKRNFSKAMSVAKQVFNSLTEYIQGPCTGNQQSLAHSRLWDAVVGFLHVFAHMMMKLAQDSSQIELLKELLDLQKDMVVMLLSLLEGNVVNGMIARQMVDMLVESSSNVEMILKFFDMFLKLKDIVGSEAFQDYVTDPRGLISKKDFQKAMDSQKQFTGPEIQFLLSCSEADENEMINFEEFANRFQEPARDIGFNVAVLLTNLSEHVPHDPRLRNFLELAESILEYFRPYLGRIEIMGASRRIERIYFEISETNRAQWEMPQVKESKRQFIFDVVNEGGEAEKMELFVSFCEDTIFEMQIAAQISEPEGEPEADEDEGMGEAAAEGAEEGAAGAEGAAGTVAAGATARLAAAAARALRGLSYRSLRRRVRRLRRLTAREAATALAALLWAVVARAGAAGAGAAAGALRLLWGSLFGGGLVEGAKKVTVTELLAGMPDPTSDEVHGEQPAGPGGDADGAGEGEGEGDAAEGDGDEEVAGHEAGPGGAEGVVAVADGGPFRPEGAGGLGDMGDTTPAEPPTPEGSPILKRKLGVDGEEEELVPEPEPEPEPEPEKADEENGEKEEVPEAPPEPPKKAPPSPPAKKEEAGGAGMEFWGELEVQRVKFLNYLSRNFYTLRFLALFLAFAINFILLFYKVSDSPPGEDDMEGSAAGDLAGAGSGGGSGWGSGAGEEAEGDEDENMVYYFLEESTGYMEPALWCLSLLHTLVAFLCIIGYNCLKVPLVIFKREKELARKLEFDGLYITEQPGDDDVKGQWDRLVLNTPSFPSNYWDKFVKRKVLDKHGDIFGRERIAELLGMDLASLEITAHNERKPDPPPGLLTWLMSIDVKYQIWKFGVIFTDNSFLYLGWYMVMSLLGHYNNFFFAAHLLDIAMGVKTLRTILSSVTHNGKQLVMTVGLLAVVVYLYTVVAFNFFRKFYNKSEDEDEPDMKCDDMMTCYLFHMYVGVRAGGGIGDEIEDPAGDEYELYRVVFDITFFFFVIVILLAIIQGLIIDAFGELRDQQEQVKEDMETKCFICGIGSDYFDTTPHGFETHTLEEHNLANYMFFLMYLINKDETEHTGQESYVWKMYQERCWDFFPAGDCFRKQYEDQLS

[4] = target: T1, SERCA1 (Oryctolagus cuniculus, UniProt P04191); experiment: SERCA1 ATPase activity; format: biochemical, rabbit; conditions: 0 – 20 μM, 20 min at 37°C, with and without A23187
[5] = target: T1, SERCA1; experiment: ATP-dependent ^45Ca^2+ accumulation by longitudinal SR vesicles; format: biochemical, rabbit; conditions: 0 – 31.2 μM, 20 min at 37°C
[6] = Drug dissolved in ethanol/water; format: physicochemical; conditions: room temperature (22 °C), HPLC
[7] = EFV daily dose of up to 600 mg/day, cited from earlier work
[8] = 6 μM, antiretroviral-naïve C2C12 myotubes
[9] = Efavirenz 2.50 μM cis, 3.0 μM cis Ca^2+
[10] = Efavirenz 5.00 μM cis, 3.0 μM cis Ca^2+
[11] = Efavirenz 12.50 μM cis, 3.0 μM cis Ca^2+
[12] = Efavirenz 20.00 μM cis, 3.0 μM cis Ca^2+
[13] = Efavirenz 31.20 μM cis, 3.0 μM cis Ca^2+
[14] = Efavirenz […] cis, 3.0 μM cis Ca^2+

Chain of rabbit skeletal muscle ryanodine receptor Ca^2+ release channel (RyR1) (P11716 whole entry): as above

Compound: O=C1Nc2ccc(Cl)cc2[C@@](C#CC2CC2)(C(F)(F)F)O1 [EFV, efavirenz]
- Ca^2+ transient in C2C12 cells pretreated with 50 μM ryanodine for 20 min [1]: attenuated Ca^2+ transient
- duration of the global Ca^2+ transient ([1]; 6 μM): about 90 sec
- effect on plasma membrane of C2C12 cells ([1]; 6 μM): blebbing
- mean peak amplitude of the Ca^2+ transient [1, 8]: 3.9 ± 0.3 f.u.
- rate of Ca^2+ rise [1, 8]: 0.14 ± 0.01 f.u./sec
- rate of Ca^2+ transient decay [1, 8]: 0.04 ± 0.00 f.u./sec
- response to a second dose in previously exposed C2C12 cells ([1]; second dose 6 μM): did not elicit a second Ca^2+ transient
- Hill slope of displacement curve [2]: 1.6
- concentrations that enhanced [^3H]ryanodine binding to RyR1 ([2]; 2 hr at 37°C): 1 to 10 nM
- time after which the channel went into an irreversible shut state ([3]; 31.2 nM cis EFV (so in the source)): 90 s
- increase in Po of RyR1 ([3]; 240 nM cis EFV, within 15 sec, 3.0 μM cis Ca^2+): eight-fold
- conductance of reduced conductance state R1 ([3]; 2.5 μM cis EFV): 233 ± 15 pS
- reduced conductance state R1, current amplitude ([3]; 2.5 μM cis EFV): 33 % of maximum
- duration of R1 state ([3]; 2.5 μM cis EFV, +30 mV): ~ 375 msec
- duration of R1 state ([3]; 2.5 μM cis EFV, −30 mV): ~ 125 msec
- conductance of reduced conductance state R2 ([3]; 5.0 μM cis EFV): 479 ± 24 pS
- Closed- maximally opened transitions (Hz) [3, 9]: 1122 ±22 Hz
- Dwell time closed state [3, 9]: 1.38 ± 0.08
- Dwell time open state [3, 9]: 0.74 ± 0.06
- Po (+30 mV) [3, 9]: 0.22 ± 0.01
- Closed- maximally opened transitions (Hz) [3, 10]: 1046 ±30 Hz
- Dwell time closed state [3, 10]: 0.56 ± 0.07
- Dwell time open state [3, 10]: 1.01 ± 0.01
- Po (+30 mV) [3, 10]: 0.59 ± 0.03
- Closed- maximally opened transitions (Hz) [3, 11]: 1005 ±16 Hz
- Dwell time closed state [3, 11]: 0.53 ± 0.46
- Dwell time open state [3, 11]: 1.03 ± 0.05
- Po (+30 mV) [3, 11]: 0.69 ± 0.04
- Closed- maximally opened transitions (Hz) [3, 12]: 1060 ±25 Hz
- Dwell time closed state [3, 12]: 0.57 ± 0.06
- Dwell time open state [3, 12]: 0.99 ± 0.04
- Po (+30 mV) [3, 12]: 0.67 ± 0.04
- Closed- maximally opened transitions (Hz) [3, 13]: 1064 ±25 Hz
- Dwell time closed state [3, 13]: 1.53 ± 0.02
- Dwell time open state [3, 13]: 0.73 ± 0.06
- Po (+30 mV) [3, 13]: 0.38 ± 0.01
- Closed- maximally opened transitions (Hz) [3, 14]: 1125 ±24 Hz
- Dwell time closed state [3, 14]: 4.91 ± 0.43
- Dwell time open state [3, 14]: 0.61 ± 0.07
- Po (+30 mV) [3, 14]: 0.08 ± 0.01
- effect on Po of RyR1 of concentrations lower than 240 nM ([3]; up to 5 minutes after cis addition): no effect
- effect on ATPase activity of SERCA1 [4]: did not show any significant effect
- effect on ATP-dependent Ca^2+ transport by SERCA1 [5]: no effect
- fraction dissolved in ethanol/water (1:1) [6]: 6.3%
- stock concentration in ethanol/water (1:1) [6]: 1.8 mM
- plasma Cmax [7]: ~ 2.5 μg/ml
- Cmax ([7]; read-out: plasma Cmax): ~8 µM
